Data published in patent publication US20250019387A1 (Frontier Medicines Corporation, priority 0001, published 2025).

Target: KRAS G12C and cRAF (Ras-binding domain) interaction (Homo sapiens (Human), UniProt P01116, C118S/C51S/C80L/G12C)
Test: Inhibition of KRAS G12C and cRAF binding (AlphaScreen)
Conditions: GMPPNP-loaded KRAS G12C, 19-20 hours incubation with compound; read-out: IC50 (Inhibition of KRAS G12C and cRAF Binding)
Method in brief: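 Compounds (DMSO) preincubated 19-20 h at room temperature, then RBD with streptavidin donor and glutathione acceptor beads added in 25 mM Hepes pH 7.4, 150 mM NaCl, 5 mM MgCl2, 0.01% Triton X-100, 2% DMSO for 60-90 min. Emission 570 nm (excitation 680 nm); IC50 by 4-parameter fit. Counter-screen used biotin-AviTag-GST instead of RBD.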

Sequence of KRAS G12C and cRAF (Ras-binding domain) interaction (P01116 other isoform, or with tags, fused parts or gaps G12C/C51S/C80L/C118S): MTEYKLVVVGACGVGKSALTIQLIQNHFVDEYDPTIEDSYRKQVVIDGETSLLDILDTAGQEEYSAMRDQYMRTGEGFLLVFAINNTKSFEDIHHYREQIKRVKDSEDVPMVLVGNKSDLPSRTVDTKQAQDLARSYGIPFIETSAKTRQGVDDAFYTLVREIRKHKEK

Row | Structure (SMILES) | IC50
1 | CN(c1nc(OCC23CCCN2CCC3)nc2c1CCN(c1cccc3cccc(Cl)c13)C2)[C@@H]1CCN(C(=O)/C=C/c2nc(C(C)(C)C)no2)C1 [Example 149, (R,E)-3-(3-(tert-butyl)-1,2,4-oxadiazol-5-yl)-1-(3-((7-(8-chloronaphthalen-1-yl)-2-((hexahydro-1H-pyrrolizin-7a-yl)methoxy)-5,6,7,8-tetrahydropyrido[3,4-d]pyrimidin-4-yl)(methyl)amino)pyrrolidin-1-yl)prop-2-en-1-one] | 10 to 100 nM
2 | CN(CC1CN(C(=O)/C=C/c2nc(C(F)F)no2)C1)c1nc(OCC23CCCN2CCC3)nc2c1CCN(c1cccc3cccc(Cl)c13)C2 [Example 150, (E)-1-(3-(((7-(8-chloronaphthalen-1-yl)-2-((hexahydro-1H-pyrrolizin-7a-yl)methoxy)-5,6,7,8-tetrahydropyrido[3,4-d]pyrimidin-4-yl)(methyl)amino)methyl)azetidin-1-yl)-3-(3-(difluoromethyl)-1,2,4-oxadiazol-5-yl)prop-2-en-1-one] | < 10 nM
3 | CN(CC1CN(C(=O)/C=C/c2nc(C3COC3)no2)C1)c1nc(OC[C@@]23CCCN2C[C@H](F)C3)nc2c(F)c(-c3cccc4cccc(Cl)c34)ncc12 [Example 152, (E)-1-(3-(((7-(8-chloronaphthalen-1-yl)-8-fluoro-2-(((2R,7aS)-2-fluorotetrahydro-1H-pyrrolizin-7a(5H)-yl)methoxy)pyrido[4,3-d]pyrimidin-4-yl)(methyl)amino)methyl)azetidin-1-yl)-3-(3-(oxetan-3-yl)-1,2,4-oxadiazol-5-yl)prop-2-en-1-one] | < 10 nM

The next lines start with the values.

Row | IC50 | Structure (SMILES)
4 | 10 to 100 nM | CN(c1nc(OCC23CCCN2CCC3)nc2c(F)c(-c3cccc4cccc(Cl)c34)ncc12)[C@@H]1CCN(C(=O)/C=C/c2nc(C(C)(C)C)no2)C1 [Example 147, (R,E)-3-(3-(tert-butyl)-1,2,4-oxadiazol-5-yl)-1-(3-((7-(8-chloronaphthalen-1-yl)-8-fluoro-2-((hexahydro-1H-pyrrolizin-7a-yl)methoxy)pyrido[4,3-d]pyrimidin-4-yl)(methyl)amino)pyrrolidin-1-yl)prop-2-en-1-one]
5 | 100 to 500 nM | CN(c1nc(OC[C@@]23CCCN2C[C@H](F)C3)nc2c1CCN(c1cccc3cccc(Cl)c13)C2)[C@@H]1CCN(C(=O)/C=C/c2nc(C(C)(C)C)no2)C1 [Example 148, (E)-3-(3-(tert-butyl)-1,2,4-oxadiazol-5-yl)-1-((R)-3-((7-(8-chloronaphthalen-1-yl)-2-(((2R,7aS)-2-fluorohexahydro-1H-pyrrolizin-7a-yl)methoxy)-5,6,7,8-tetrahydropyrido[3,4-d]pyrimidin-4-yl)(methyl)amino)pyrrolidin-1-yl)prop-2-en-1-one]
6 | > 500 nM | C=CC(=O)N1CC[C@@H](N(C)c2nc(OC[C@]34CCCN3C[C@@H](F)C4)nc3c(F)c(-c4cccc5ccc(F)c(Cl)c45)ncc23)C1 [Example 151, 1-((R)-3-((7-(8-chloro-7-fluoronaphthalen-1-yl)-8-fluoro-2-(((2S,7aR)-2-fluorohexahydro-1H-pyrrolizin-7a-yl)methoxy)pyrido[4,3-d]pyrimidin-4-yl)(methyl)amino)pyrrolidin-1-yl)prop-2-en-1-one]
7 | 10 to 100 nM | CN(CC1CN(C(=O)/C=C/c2nc(C3COC3)no2)C1)c1nc(OCC23CCCN2CCC3)nc2c(F)c(-c3cccc4cccc(Cl)c34)ncc12 [Example 153, (E)-1-(3-(((7-(8-chloronaphthalen-1-yl)-8-fluoro-2-((tetrahydro-1H-pyrrolizin-7a(5H)-yl)methoxy)pyrido[4,3-d]pyrimidin-4-yl)(methyl)amino)methyl)azetidin-1-yl)-3-(3-(oxetan-3-yl)-1,2,4-oxadiazol-5-yl)prop-2-en-1-one]
